According to patent US7875625B2, “Cyclohepta[b]pyridine-3-carbonylguanidine derivative and pharmaceutical product containing same” (Toa Eiyo Ltd., priority 2005, dated 2011):
pIC50: −log10 of the molar value.

Legend:
Na^+/H^+ exchanger (NHE) = target: T1, Na^+/H^+ exchanger (NHE) (Rattus norvegicus, UniProt P26431); assay: NHE inhibitory effect test (swelling of rat platelets induced by sodium propionate); assay type: cell-based; details: rat platelet-rich plasma, sodium propionate buffer pH 6.7; 300 μM Amiloride taken as 100% inhibition; Probit method
T1 construct: from tissue; host or cells: platelet-rich plasma from Wistar rat blood
Description: The NHE inhibitory activity was measured according to the method by Scholz et al. [British Journal of Pharmacology, Vol. 109, p. 562-568 (1993)], taking the swelling of rat platelets induced by sodium propionate as an index.
Under etherization, blood was collected (8 mL) from the abdominal aorta of a Wistar rat, and 1 mL of a citrate dextrose solution as an anticoagulant was added. The blood sample was immediately centrifuged at 90×g for 10 minutes, and then the collected supernatant was taken as platelet-rich plasma. Subsequently, to 250 μL of a 140 mM sodium propionate buffer solution containing the test compound dissolved in dimethylsulfoxide (pH 6.7, final dimethylsulfoxide concentration 1%), the platelet-rich plasma prepared in the above (number of platelet; 10×10^6/50 μL) was added, and the decrease in the absorbance associated with the swelling of platelets was measured over time with a Hematracer (NKK Corp.).
The rate of decrease in the absorbance at 20 seconds after the addition of the platelet-rich plasma was taken as the NHE activity, and the inhibitory activity of the respective compounds was expressed as a relative activity, while the action obtained upon addition of 300 μM of Amiloride was taken as 100% inhibition.
In addition, the test results were obtained by calculating the concentration at which the inhibitory activity of the test compound becomes 50% (IC50 value), by a Probit method.

[1] = system: reperfusion-induced arrhythmia upon myocardial ischemia; assay: Reperfusion-induced arrhythmia inhibitory action test; assay type: in vivo, rat; details: male SD rats, 1 mL/kg intravenous
Description: Subsequently, in evaluation of the in vivo NHE inhibitory action, the effect of the test compound on reperfusion-induced arrhythmia upon myocardial ischemia was evaluated according to the method of Aihara et al. [European Journal of Pharmacology, Vol. 404, p. 221-229 (2000)]. Under anesthesia using pentobarbital sodium (60 mg/kg, intraperitoneal administration), cannulae were inserted into trachea, femoral vein and carotid artery of male SD rats ([…]) for artificial ventilation, drug administration and blood pressure measurement, respectively. The blood pressure was measured using a strain pressure amplifier via a pressure transducer, while the heart rate was measured from the blood pressure pulse wave using a cardiotachometer. Furthermore, an electrocardiogram (lead II) was measured from the electrodes attached to each four limbs. Next, under artificial ventilation, left thoracotomy was performed and a snare (5-0 nylon) was loosely placed around a blood vessel which was about 3 mm apart from the origin of the left coronary artery. Thereafter, it was confirmed that arrhythmia was not occurred for 10 minutes, and then the snare was fastened to induce local myocardial ischemia. Furthermore, after 4 minutes of myocardial ischemia, the compound was intravenously administered for 1 minute, and after 5 minutes of myocardial ischemia, the snare was loosened, then the arrhythmia occurred after reperfusion was recorded and analyzed with an arrhythmia analyzer (Softron Co., Ltd.), thereby the anti-arrhythmic action of the compound was evaluated. […] The control group was administered with physiological saline.
With regard to the ventricular fibrillation (Vf) which occurred within 10 minutes after reperfusion (in the cases of halfway death, up to the time point where cardiac arrest was confirmed), arrhythmia analysis was performed according to the Guidelines for Lambeth Convention [Cardiovascular research, Vol. 22, p. 447-455, 1988], and evaluation was made in terms of the frequency of Vf occurrence, cumulative duration time of Vf, and the mortality.
The frequency of Vf occurrence, cumulative duration of Vf, and the mortality for the respective test compounds are presented in Table 2.

[2] = Metabolic stability test in rat (generation of control compound in plasma); assay type: in vivo; details: male SD rats; for Plasma concentration of the control compound, after 5 min / Plasma concentration of the control compound, after 15 min / Plasma concentration of the control compound, after 30 min / Plasma concentration of the control compound, after 60 min / Plasma concentration of the control compound, after 120 min: equivalent of 1 mg/kg control compound via tail vein, LC/MS/MS; for Decomposition into the Control Compound in vivo (in words): tail vein, plasma 5-120 min
From the text: The compound represented by Formula (1) of the present invention has a structure in which the hydroxyl group on the 9-position of a 9-hydroxymethyl-cyclohepta[b]pyridine-3-carbonylguanidine derivative is converted to a specific substituent. However, if the compound is metabolized in vivo to remove the specific substituent from the compound, there may be generated the original 9-hydroxymethyl-cyclohepta[b]pyridine-3-carbonylguanidine derivative, which has toxic effects on the central nervous system. Thus, the inventive compounds as synthesized in Examples were administered in vivo to study whether the control compound, which was the corresponding 9-hydroxymethyl product, was generated.
Male SD rats (7 weeks old) were administered at 1 mg/kg (an amount calculated excluding salts) of the control compound, an equivalent amount of the Inventive Compound 2, 4, 6, 7 or 12, or Reference Compound 20, through the tail vein. After administration, about 0.2 mL of blood samples were collected after 5, 15, 30, 60 and 120 minutes, and the blood samples were centrifuged at 4° C. at a speed of rotation of 15000 for 15 minutes, thus to separate the supernatant plasma. The concentration of the control compound in the plasma was measured by LC/MS/MS. The measurement results were shown as +++ when the detected plasma concentration of the control compound is 200 ng/mL or greater; ++ for more than 100 ng/mL and less than 200 ng/mL; + for more than 20 ng/mL and less than 100 ng/mL; and − for less than 20 ng/mL or no detection.

male mice = assay: Toxicity test with 2-days repeated intraperitoneal administration in mouse; assay type: in vivo; details: equivalent of 300 mg/kg control compound intraperitoneally once a day for 2 days
Description: For three male mice in each group, 300 mg/kg of the Control Compound (an amount calculated excluding salts), or an equivalent amount of the Inventive Compound 2, 4, 6, 7 or 12 were intraperitoneally administered once a day for 2 days, and a histopathological tests were performed. The Control Compound, and the Inventive Compounds 2, 4 and 6 were suspended in a 0.5% tragacanth gum solution, and the Inventive Compound 7 was suspended in a 10 DMSO-containing 0.5% tragacanth gum solution, while the Inventive Compound 12 was suspended in olive oil. For the histopathological test, in order to make a more thorough examination of central nervous toxicity, the brain was examined after whole body was subjected to perfusion fixation with a 4% formaldehyde in neutral phosphate buffer as a fixing solution using a liquid transporting pump under pentobarbital sodium anesthesia.

Beagle dogs = assay: Toxicity test after 4-days repeated intravenous administration in beagle dogs; assay type: in vivo, dog; details: equivalent of 30 mg/kg control compound intravenously once a day for 4 days
Description: With one male and one female dogs in each group, 30 mg/kg of the Control Compound dissolved in physiological saline (an amount calculated excluding salts), or an equivalent amount of the Inventive Compound 2, 4, 6 or 8 was repeatedly administered intravenously once a day for 4 days, and general symptom observation and pharmacological histopathologic examination were performed.

[3] = Comparative test for transferability to the brain in rat; assay type: in vivo; details: male SD rats, 50 mg/kg via tail vein
Description: To male SD rats (6 weeks old), the Control Compound or the Inventive Compound 2 was administered through the tail vein in an amount of 50 mg/kg. After administration, whole blood samples were collected over time from the abdominal aorta under etherization, and the brain tissues were extracted immediately. The brain tissues were lightly washed off to remove the blood attached around with physiological saline, and subsequently the tissues were frozen in liquid nitrogen and preserved at −30° C. until analyzed. The blood was centrifuged at 4° C. at a rotation speed of 15000 for 15 minutes to separate the supernatant plasma, and was preserved at −30° C. until analyzed. The brain tissues were thawed by standing at ambient temperature, and then the wet weight was measured. Distilled water was added in an amount five times of the wet weight, and a suspension was prepared using a Polytron homogenizer. The measurement of the test compound concentration in the plasma and the brain tissues was performed by LC/MS/MS. The transferability of the drug to the brain was calculated by dividing the drug concentration in the brain tissues by the plasma concentration obtained at the same time.

[4] = 3.62 mmol/L, within 10 minutes after reperfusion

T1 sequence (P26431 whole entry): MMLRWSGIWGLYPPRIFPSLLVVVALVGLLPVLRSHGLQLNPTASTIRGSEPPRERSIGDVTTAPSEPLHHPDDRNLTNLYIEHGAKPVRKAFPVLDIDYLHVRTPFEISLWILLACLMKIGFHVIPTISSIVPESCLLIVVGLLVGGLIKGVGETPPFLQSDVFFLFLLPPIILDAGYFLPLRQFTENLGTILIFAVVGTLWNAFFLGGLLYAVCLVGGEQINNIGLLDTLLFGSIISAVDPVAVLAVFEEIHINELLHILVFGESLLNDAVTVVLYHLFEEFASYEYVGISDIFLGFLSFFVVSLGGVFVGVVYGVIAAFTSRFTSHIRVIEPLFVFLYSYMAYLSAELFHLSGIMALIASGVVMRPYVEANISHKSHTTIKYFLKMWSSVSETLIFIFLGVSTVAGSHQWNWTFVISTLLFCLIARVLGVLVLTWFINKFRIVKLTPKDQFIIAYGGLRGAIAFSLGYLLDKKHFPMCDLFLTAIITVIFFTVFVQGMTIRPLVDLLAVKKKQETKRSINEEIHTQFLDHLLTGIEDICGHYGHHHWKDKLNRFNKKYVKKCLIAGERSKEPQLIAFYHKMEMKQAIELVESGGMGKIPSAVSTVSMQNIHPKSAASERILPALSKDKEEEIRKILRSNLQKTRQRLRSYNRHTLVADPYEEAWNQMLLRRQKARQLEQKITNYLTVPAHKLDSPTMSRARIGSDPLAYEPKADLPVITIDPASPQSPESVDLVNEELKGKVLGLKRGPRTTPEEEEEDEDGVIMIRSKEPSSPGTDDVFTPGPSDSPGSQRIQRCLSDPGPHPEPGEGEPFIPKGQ

SMILES | pIC50 (Na^+/H^+ exchanger (NHE)) | Cumulative duration of Vf [1, 4] [s] | Frequency of Vf occurrence [1, 4] [%] | Mortality [1, 4] [%] | Plasma concentration of the control compound, after 5 min [2] | Plasma concentration of the control compound, after 15 min [2] | Plasma concentration of the control compound, after 30 min [2] | Plasma concentration of the control compound, after 60 min [2] | Plasma concentration of the control compound, after 120 min [2] | Histopathological finding in the brain (male mice) | General condition (symptom observation) (Beagle dogs) | Pathologic examination of the brain (Beagle dogs) | Concentration Intracerebral/Plasma, after 15 min ([3]; 15 min) | Concentration Intracerebral/Plasma, after 30 min ([3]; 30 min) | Decomposition into the Control Compound in vivo (in words) [2] | Cumulative duration of Vf ([1]; 1.09 mmol/L, 5 animals) [s] | Frequency of Vf occurrence ([1]; 1.09 mmol/L, 5 animals) [%] | Mortality ([1]; 1.09 mmol/L, 5 animals) [%]
CS(=O)(=O)O.Cc1nc2c(cc1C(=O)NC(=N)N)CCCCC2CO (stereo not shown) [Control Compound, 9-Hydroxymethyl-2-methyl-6,7,8,9-tetrahydro-5H-cyclohepta[b]pyridine-3-carbonylguanidine methanesulfonic acid salt, reference compound] | 7.48 | 30.2 | 50 | 25 | +++ (+++ when the detected plasma concentration of the control compound is 200 ng/mL or greater) | ++ (++ for more than 100 ng/mL and less than 200 ng/mL) | + (+ for more than 20 ng/mL and less than 100 ng/mL) | + (+ for more than 20 ng/mL and less than 100 ng/mL) | − (− for less than 20 ng/mL or no detection) | vacuolation was recognized in the cerebellar nuclei and vestibular nuclei | vomiting, salivation, and decreases in locomotor activity, staggering gait and ananastasia | necrosis/chromatolysis of nerve cells, swelling of axons and vacuolation of myelin sheath | 1.64 | 2.33 | – | – | – | –
Cc1nc2c(cc1C(=O)NC(=N)N)CCCCC2CS(=O)(=O)[O-].[Na+] (stereo not shown) [Inventive Compound 4, 3-Guanidinocarbonyl-2-methyl-6,7,8,9-tetrahydro-5H-cyclohepta[b]pyridin-9-ylmethanesulfonic acid sodium salt] | 6.68 | 25.3 | 60 | 0 | − (− for less than 20 ng/mL or no detection) | − (− for less than 20 ng/mL or no detection) | − (− for less than 20 ng/mL or no detection) | − (− for less than 20 ng/mL or no detection) | − (− for less than 20 ng/mL or no detection) | any histologic finding which could be caused by drug administration was not recognized | only vomiting was recognized | any histologic finding which could be caused by drug administration was not recognized | – | – | not detected at any time point | – | – | –
Cc1nc2c(cc1C(=O)NC(=N)N)CCCCC2COC(=O)NCCOS(=O)(=O)[O-].[Na+] (stereo not shown) [Inventive Compound 6, 2-(3-Guanidinocarbonyl-2-methyl-6,7,8,9-tetrahydro-5H-cyclohepta[b]pyridin-9-ylmethyloxycarbonylamino)ethyl sulfate sodium salt] | 6.85 | – | – | – | − (− for less than 20 ng/mL or no detection) | − (− for less than 20 ng/mL or no detection) | − (− for less than 20 ng/mL or no detection) | − (− for less than 20 ng/mL or no detection) | − (− for less than 20 ng/mL or no detection) | any histologic finding which could be caused by drug administration was not recognized | only vomiting was recognized | any histologic finding which could be caused by drug administration was not recognized | – | – | not detected at any time point | 23.3 | 20 | 0
